Values joined by “and” are separate entries in the source; they are usually repeats but may differ in a detail not shown here. Identical values can stand only once.
Assay: mn = molality of the nth substance listed, in mol/kg
Conditions: 100 kPa, Liquid; for speed of sound: Frequency=3 MHz, Sing-around technique in a fixed-path interferometer; for mass density: Vibrating tube method

CN(C)C(=N)NC(=N)N.Cl [N,N-dimethylimidodicarbonimidic diamide hydrochloride] + O
Conditions	mass density, m1 = 0.03 [kg/m3]	mass density, m1 = 0.045 [kg/m3]	mass density, m1 = 0.06 [kg/m3]	mass density, m1 = 0.09 [kg/m3]	speed of sound, m1 = 0.03 [m/s]	speed of sound, m1 = 0.045 [m/s]	speed of sound, m1 = 0.06	speed of sound, m1 = 0.09 [m/s]
305.15 K	996.159	996.716	997.319	998.393	1516.5	1518	1519.3 m/s and 1519.3 m/s	1522
310.15 K	994.44	994.953	995.586	996.654	1526.3	1527.7	1529 m/s	1531.5
315.15 K	992.549	993.115	993.681	994.744	1534.4	1535.9	1537.2 m/s	1539.6

O [water] + CN(C)C(=N)NC(=N)N.Cl
m2 = 0
Conditions	mass density [kg/m3]	speed of sound [m/s]
305.15 K	995.038	1513.7
310.15 K	993.328	1523.6
315.15 K	991.439	1532.1

O [water] + C[C@@H](O)[C@H](N)C(=O)O
m2 = 0
Conditions	mass density [kg/m3]	speed of sound [m/s]
305.15 K	995.038	1513.7
310.15 K	993.328	1523.6
315.15 K	991.439	1532.1

O [water] + N[C@@H](CO)C(=O)O
m2 = 0
Conditions	mass density [kg/m3]	speed of sound [m/s]
305.15 K	995.038	1513.7
310.15 K	993.328	1523.6
315.15 K	991.439	1532.1

— the NIST ThermoML archive (doi:10.1016/j.jct.2015.11.020)
